The target in experiment [1] is T1, BRD4 BD1 (Homo sapiens, UniProt O60885).
T1 construct: made in house
Kind of experiment: AlphaScreen binding assay, BRD4 Bromodomain 1. Summed up: (§1)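 Compound dilution series were mixed with His-tagged BRD4 bromodomain and biotinylated tetra-acetylated H4 (1-21) peptide at pH 7.3 (BD1 and peptide at 50 nM, BD2 and peptide at 100 nM). Donor and acceptor beads were then added, and plates were equilibrated at least 1 h before reading. IC50 values were fitted with a four-parameter logistic model.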

For experiment [2], the target named is T2, BRD4 BD2 (Homo sapiens, UniProt O60885).
T2 construct: made in house
Kind of experiment: AlphaScreen binding assay, BRD4 Bromodomain 2. The procedure, abridged: as §1

The subject of experiment [3] is MV4-11 cells. Kind of experiment: Oncology cell growth assay (3-day proliferation, CellTiter-Glo). Format: cell-based. As to conditions: Homo sapiens, MV4-11, 72 h, AML cell line MV4-11, 72 hours, compounds grouped by IC50 range, read-out: MV4-11 IC50 (inhibition of proliferation, gIC50). The procedure, abridged:
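Compounds were serially diluted 3-fold in DMSO, giving final well concentrations from 10 down to 0.0045 μM. MV4-11 cells were then seeded at 3000 cells/well in RPMI 1640 with 10% FBS and incubated 72 hours. CellTiter-Glo signal was measured and gIC50 obtained by four-parameter logistic regression.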

Take `CC(C)OC(=O)N1C[C@H](C)N(C(=O)C2CC2)c2ccc(-c3cnn(CC4CC4)c3)cc21` [Example I-316]: the IC50 in experiment [1] lay within 100 to 1000 nM; in experiment [2] it was 50 to 500 nM; in experiment [3], 100 to 500 nM.

On to `CC(C)OC(=O)N1C[C@H](C)N(C(=O)C2CC2)c2ccc(-c3cnn(C4COC4)c3)cc21` [Example I-317], for which the IC50 fell in the range of 100 to 1000 nM in experiment [1], 50 to 500 nM in experiment [2] and 100 to 500 nM in experiment [3].

With `COC(=O)N1c2ccc(-c3cnn(CCS(C)(=O)=O)c3)cc2N(C(=O)OC(C)C)C[C@@H]1C` [Example I-318], the IC50 was 100 to 1000 nM in experiment [1], 50 to 500 nM in experiment [2] and more than 500 nM in experiment [3].

For the molecule `COC(=O)N1c2ccc(-c3cnn(CC(N)=O)c3)cc2N(C(=O)OC(C)C)C[C@@H]1C` [Example I-319], the IC50 is 100 to 1000 nM in experiment [1], 50 to 500 nM in experiment [2] and more than 500 nM in experiment [3].

In the case of `COC(=O)N1c2ccc(-c3cnn(CC(=O)N(C)C)c3)cc2N(C(=O)OC(C)C)C[C@@H]1C` [Example I-320], the values for the IC50 in experiment [1], in experiment [2] and in experiment [3] were 100 to 1000 nM, 50 to 500 nM and more than 500 nM, respectively.

As to `COC(=O)N1c2ccc(-c3cnn(CCN4CCOCC4)c3)cc2N(C(=O)OC(C)C)C[C@@H]1C` [Example I-321], the IC50 is 100 to 1000 nM in experiment [1], 50 to 500 nM in experiment [2] and 100 to 500 nM in experiment [3].

`COC(=O)N1c2ccc(-c3cnn(C4CCOCC4)c3)cc2N(C(=O)OC(C)C)C[C@@H]1C` [Example I-322]: the IC50 lay in the range of 100 to 1000 nM in experiment [1], 50 to 500 nM in experiment [2] and 100 to 500 nM in experiment [3].

As for `COCCn1cc(-c2ccc3c(c2)N(C(=O)OC(C)C)C[C@H](C)N3C(=O)OC)cn1` [Example I-323], the IC50 in experiment [1] fell in the range of 100 to 1000 nM; in experiment [2], 50 to 500 nM; in experiment [3] it was 100 to 500 nM.

Regarding `COC(=O)N1c2ccc(-c3cnn(CCO)c3)cc2N(C(=O)OC(C)C)C[C@@H]1C` [Example I-324], the IC50 is 100 to 1000 nM in experiment [1], 50 to 500 nM in experiment [2] and 100 to 500 nM in experiment [3].

As for `COC(=O)N1c2ccc(-c3cnn(CC4CC4)c3)cc2N(C(=O)OC(C)C)C[C@@H]1C` [Example I-325], the results for the IC50 in experiment [1], in experiment [2] and in experiment [3] were 100 to 1000 nM, 50 to 500 nM and more than 500 nM, respectively.

In the case of `COC(=O)N1c2ccc(-c3cnn(C4COC4)c3)cc2N(C(=O)OC(C)C)C[C@@H]1C` [Example I-326], the IC50 in experiment [1] was 100 to 1000 nM; in experiment [2], 50 to 500 nM; in experiment [3] it was more than 500 nM.

Consider `CC(=O)N1c2ccc(-c3cnn(CC(C)(C)O)c3)cc2N(C(=O)OC(C)C)C[C@@H]1C` [Example I-327], for which the IC50 lay in the range of 100 to 1000 nM in experiment [1], 50 to 500 nM in experiment [2] and 100 to 500 nM in experiment [3].

`CC(C)OC(=O)N1C[C@H](C)N(C(=O)C2CC2)c2ccc(-c3cnn(CC(C)(C)O)c3)cc21` [Example I-328]: the IC50 in experiment [1] lay within 100 to 1000 nM; in experiment [2] it was 50 to 500 nM; in experiment [3], 100 to 500 nM.

With `COC(=O)N1c2ccc(-c3cnn(CC(C)(C)O)c3)cc2N(C(=O)OC(C)C)C[C@@H]1C` [Example I-329], the IC50 in experiment [1] lay within 100 to 1000 nM; in experiment [2], 50 to 500 nM; in experiment [3], 100 to 500 nM.

As to `CC(=O)N1c2ccc(-c3cnn(C(C)(C)C)c3)cc2N(C(=O)OC(C)C)C[C@@H]1C` [Example I-330], the IC50 in experiment [1] fell in the range of 100 to 1000 nM; in experiment [2], 50 to 500 nM; in experiment [3] it was 100 to 500 nM.

For `CC(C)OC(=O)N1C[C@H](C)N(C(=O)C2CC2)c2ccc(-c3cnn(C(C)(C)C)c3)cc21` [Example I-331], the IC50 in experiment [1] is 100 to 1000 nM; in experiment [2], more than 500 nM; in experiment [3] it was more than 500 nM.

Turning to `COC(=O)N1c2ccc(-c3cnn(C(C)(C)C)c3)cc2N(C(=O)OC(C)C)C[C@@H]1C` [Example I-332], the results for the IC50 in experiment [1], in experiment [2] and in experiment [3] were 100 to 1000 nM, more than 500 nM and more than 500 nM, respectively.

As for `CC(=O)N1c2ccc(-c3cnn(C(F)F)c3)cc2N(C(=O)OC(C)C)C[C@@H]1C` [Example I-336], the IC50 is 100 to 1000 nM in experiment [1], 50 to 500 nM in experiment [2] and more than 500 nM in experiment [3].

With `CC(=O)N1c2ccc(-c3c[nH]nc3C)cc2N(C(=O)OC(C)C)CC1C` (stereo not drawn) [Example I-337], the IC50 is 100 to 1000 nM in experiment [1], more than 500 nM in experiment [2] and more than 500 nM in experiment [3].

Consider `CC(=O)N1c2ccc(-c3cn(C)nc3C)cc2N(C(=O)OC(C)C)C[C@@H]1C` [Example I-338], for which the IC50 in experiment [1] was 100 to 1000 nM; in experiment [2], 50 to 500 nM; in experiment [3], more than 500 nM.

Turning to `CC(=O)N1c2ccc(-c3ccc(NS(C)(=O)=O)cc3)cc2N(C(=O)OC(C)C)C[C@@H]1C` [Example I-345], the IC50 in experiment [1] lay within 100 to 1000 nM; in experiment [2] it was 50 to 500 nM; in experiment [3], 100 to 500 nM.

Regarding `CC(=O)N1c2ccc(-c3ccc(N(C)S(C)(=O)=O)cc3)cc2N(C(=O)OC(C)C)C[C@@H]1C` [Example I-346], the IC50 lay within 100 to 1000 nM in experiment [1], 50 to 500 nM in experiment [2] and 100 to 500 nM in experiment [3].

On to `CC(=O)N1c2ccc(-c3ccc(NS(=O)(=O)C4CC4)cc3)cc2N(C(=O)OC(C)C)C[C@@H]1C` [Example I-347], for which the IC50 in experiment [1] was less than 100 nM; in experiment [2], less than 50 nM; in experiment [3] it was less than 100 nM.

Take `CC(=O)N1c2ccc(-c3ccc4c(c3)CCN4S(C)(=O)=O)cc2N(C(=O)OC(C)C)C[C@@H]1C` [Example I-348]: the IC50 in experiment [1] is 100 to 1000 nM; in experiment [2], less than 50 nM; in experiment [3], 100 to 500 nM.

Consider `CC(=O)N1c2ccc(-c3ccc(NS(C)(=O)=O)cc3)cc2N(C(=O)C2CC2)C[C@@H]1C` [Example I-349], for which the IC50 in experiment [1] is 100 to 1000 nM; in experiment [2], 50 to 500 nM; in experiment [3] it was 100 to 500 nM.

Turning to `CC(=O)N1c2ccc(-c3ccc(N(C)S(C)(=O)=O)cc3)cc2N(C(=O)C2CC2)C[C@@H]1C` [Example I-350], the IC50 was 1000 to 10000 nM in experiment [1], 50 to 500 nM in experiment [2] and 100 to 500 nM in experiment [3].

For `CC(=O)N1c2ccc(-c3ccc(NS(=O)(=O)C4CC4)cc3)cc2N(C(=O)C2CC2)C[C@@H]1C` [Example I-351], the values for the IC50 in experiment [1], in experiment [2] and in experiment [3] were 100 to 1000 nM, 50 to 500 nM and 100 to 500 nM, respectively.

For the molecule `CC(=O)N1c2ccc(-c3ccc4c(c3)CCN4S(C)(=O)=O)cc2N(C(=O)C2CC2)C[C@@H]1C` [Example I-352], the IC50 in experiment [1] was less than 100 nM; in experiment [2], less than 50 nM; in experiment [3], less than 100 nM.

As for `CC(=O)N1c2ccc(-c3cnn(C4CCNCC4)c3)cc2N(C(=O)OC(C)C)C[C@@H]1C` [Example I-353], the IC50 in experiment [1] lay within 100 to 1000 nM; in experiment [2], 50 to 500 nM; in experiment [3] it was 100 to 500 nM.

As to `CC(C)OC(=O)N1C[C@H](C)N(C(=O)C2CC2)c2ccc(-c3cnn(C4CCNCC4)c3)cc21` [Example I-354], the IC50 fell in the range of 100 to 1000 nM in experiment [1], 50 to 500 nM in experiment [2] and 100 to 500 nM in experiment [3].

Regarding `COC(=O)N1c2ccc(-c3cnn(C4CCNCC4)c3)cc2N(C(=O)OC(C)C)C[C@@H]1C` [Example I-355], the IC50 in experiment [1] was in the range of 100 to 1000 nM; in experiment [2], 50 to 500 nM; in experiment [3], 100 to 500 nM.

Turning to `CC(=O)N1c2ccc(-c3cnn(C4CNC4)c3)cc2N(C(=O)OC(C)C)C[C@@H]1C` [Example I-356], the IC50 is 100 to 1000 nM in experiment [1], less than 50 nM in experiment [2] and 100 to 500 nM in experiment [3].

`CC(=O)N1c2ccc(-c3cnn(C4CCNCC4)c3)cc2N(C(=O)C2CC2)C[C@@H]1C` [Example I-359]: the IC50 in experiment [1] is 1000 to 10000 nM; in experiment [2] it was less than 50 nM; in experiment [3], 100 to 500 nM.

Consider `CC(=O)N1c2ccc(-c3cnn(C4CNC4)c3)cc2N(C(=O)C2CC2)C[C@@H]1C` [Example I-360], for which the figures for the IC50 in experiment [1], in experiment [2] and in experiment [3] were less than 100 nM, less than 50 nM and 100 to 500 nM, respectively.

With `C[C@H]1CN(C(=O)c2ccco2)c2cc(-c3ccc(S(C)(=O)=O)cc3)ccc2N1C(=O)C1CC1` [Example I-364], the IC50 in experiment [1] was 100 to 1000 nM; in experiment [2], less than 50 nM; in experiment [3], 100 to 500 nM.

For `CCC(=O)N1c2ccc(-c3ccc(S(C)(=O)=O)cc3)cc2N(C(=O)c2ccco2)C[C@@H]1C` [Example I-365], the IC50 was 1000 to 10000 nM in experiment [1], less than 50 nM in experiment [2] and more than 500 nM in experiment [3].

In the case of `C[C@H]1CN(C(=O)C2CC2)c2cc(-c3cnn(C4CC4)c3)ccc2N1C(=O)C1CC1` [Example I-377], the IC50 in experiment [1] was in the range of 100 to 1000 nM; in experiment [2] it was 50 to 500 nM; in experiment [3] it was 100 to 500 nM.

On to `CC(C)OC(=O)N1C[C@H](C)N(C(=O)C2CC2)c2ccc(-c3cnn(C4CC4)c3)cc21` [Example I-378], for which the IC50 was 100 to 1000 nM in experiment [1], 50 to 500 nM in experiment [2] and 100 to 500 nM in experiment [3].

For the molecule `CCOC(=O)N1C[C@H](C)N(C(=O)C2CC2)c2ccc(-c3cnn(C4CC4)c3)cc21` [Example I-379], the values for the IC50 in experiment [1], in experiment [2] and in experiment [3] were 100 to 1000 nM, 50 to 500 nM and 100 to 500 nM, respectively.

With `CC(=O)N1c2ccc(-c3ccc4nccn4c3)cc2N(C(=O)c2ccco2)C[C@@H]1C` [Example I-382], the IC50 is 1000 to 10000 nM in experiment [1], more than 500 nM in experiment [2] and 100 to 500 nM in experiment [3].

Regarding `CC(=O)N1c2ccc(-c3ccc4nccn4n3)cc2N(C(=O)c2ccco2)C[C@@H]1C` [Example I-398], the values for the IC50 in experiment [1], in experiment [2] and in experiment [3] were 100 to 1000 nM, 50 to 500 nM and 100 to 500 nM, respectively.

Values taken from patent US10703764B2, “Benzopiperazine compositions as BET bromodomain inhibitors” (FORMA Therapeutics, Inc., priority 2013, dated 2020).
